pEC50: −log10 of the molar value. Entries after “also recorded” stand apart in the source; their conditions may differ. Like-named read-outs stand apart in the source and are kept apart here.
Experiments:
SARS-CoV = assay: microbe, parasite or virus in culture; format: cell-based; settings: read-out: EC50, SARS-CoV plaque formation
Vero cells = settings: African green monkey
[1] = target: T1, human neutrophil elastase (HNE) (Homo sapiens, UniProt P08246); format: biochemical
T1 sequence (P08246 30-267): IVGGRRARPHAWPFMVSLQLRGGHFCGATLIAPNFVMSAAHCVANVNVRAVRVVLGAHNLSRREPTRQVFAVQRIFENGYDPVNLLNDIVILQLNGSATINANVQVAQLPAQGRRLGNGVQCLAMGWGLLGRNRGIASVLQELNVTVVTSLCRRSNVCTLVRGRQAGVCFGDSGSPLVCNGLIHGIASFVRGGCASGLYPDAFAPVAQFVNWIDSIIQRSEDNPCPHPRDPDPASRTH

poliovirus (type 1) = format: cell-based
[2] = Severe acute respiratory syndrome coronavirus, Vero

Structure (SMILES)	pEC50 (SARS-CoV; [2])	pEC50 (SARS-CoV)	Cytotoxicity on Vero Cells (TC50) (Vero cells) [µM]	Inhibition of proteolytic activity of HNE [1]	Inhibition of poliovirus plaque formation (poliovirus (type 1))
O=C(Nc1ccc(Cl)c(-c2nc3ncccc3o2)c1)c1cccc(OCc2ccccc2)c1 [HE602, 3-Benzyloxy-N-(4-chloro-3-oxazolo[4,5-b]pyridine-2-yl-phenyl)benzamide]	5.22	> 5.00	>50	–	–
CC1=C(C(=O)OCCc2ccccc2)C(c2ccccc2[N+](=O)[O-])C2=C(CCCC2=O)N1 (stereo not drawn) [MP576, 3-quinolinecarboxylic acid, 1,4,5,6,7,8-hexahydro-2-methyl-4-(2-nitrophenyl)-5-oxo-, 2-phenylethyl ester]	5.15	> 5.00	>50	failed to inhibit; also recorded: did not inhibit	–
OC(COc1cccc(OCC(O)CN2CCCCC2)c1)CN1CCCCC1 (stereo not drawn) [VE607, 1-[3-(2-Hydroxyl-3-piperidin-1-yl-propoxy)-phenoxy]-3-piperidin-1-ylpropan-2-ol]	–	–	>50	–	did not protect; also recorded: did not inhibit
